Data on six compounds can be found in ChEMBL document CHEMBL1157777, “Identification of hits as matrix-2 protein inhibitors through the focused screening of a small primary amine library” (J Med Chem, 2010).

The nature of experiment [1]: Inhibition of avian influenza virus (H5N1) matrix 2 protein expressed in HEK293 cells by path clamp electrophysiology method. The following applies: Influenza A virus. Type of experiment: cell-based.
For a further experiment, the system named is Influenza A virus. In words: Antiviral activity against Influenza A virus (A/Hong Kong/8/1968([…])) infected in MDCK cells. Format: functional, organism-based.
Experiment [2] can be described thus: Inhibition of avian influenza virus H5N1 matrix 2 protein expressed in HEK293 cells assessed as cell viability after 24 hrs. Type of experiment: cell-based. Particulars: Influenza A virus, H5N1, HEK293, 24 h.
For the next experiment, the system named is HEK293. Put plainly: Inhibition of avian influenza virus (H5N1) matrix 2 protein expressed in HEK293 cells at 50 uM by path clamp electrophysiology method. Type of experiment: cell-based. The following applies: Influenza A virus.

SMILES strings stand for the structures. Active and inactive are the calls of the source. The calls are words filed in the database; no cut-off is given here.

A word on the IC50: it is the concentration at which inhibition is half-maximal. For `C[C@@H]1[C@@H](N)C[C@H]2C[C@@H]1C2(C)C`, the concentration for half-maximal inhibition (IC50) in experiment [1] is 6.8 µM; with Influenza A virus it was 6.02 µM; in experiment [2] it was 23 µM.
For the compound `NC12CC3CC(CC1C3)C2`, the IC50 in experiment [1] came out at 13.5 µM; in the experiment with Influenza A virus, 38.2 µM; in experiment [2], 19 µM.
The like results for `C[C@H]1[C@H](N)C[C@@H]2C[C@H]1C2(C)C` were, in that order, 4.3 µM, 1.36 µM and 5.96 µM.
Consider `NC12CC3CC(CC(C3)C1)C2` [AMANTADINE], for which, in the experiment on HEK293, the inhibition entry was “inactive”. The half-inhibitory concentration (IC50) in experiment [1] turned out to be 8.8 µM; in the experiment with Influenza A virus it was 5.96 µM; in experiment [2] it was 3.52 µM.
With `CC(C)(C)C1CCC(N)CC1` (centres undefined), the concentration for half-maximal inhibition (IC50) in experiment [1] amounted to 4.8 µM; with Influenza A virus it was 33.5 µM; in experiment [2] it was 3.37 µM.
On the same counts, the results for `CC1(C)[C@@H]2CC[C@H](CN)[C@H]1C2` are 4.4 µM, 2.3 µM and 25.5 µM.
